Results published in US20240368173A1, “TRICYCLIC GPR65 MODULATORS” (PATHIOS THERAPEUTICS LIMITED, priority 2021, published 2024).

What follows are molecules tested against human recombinant GPR65 (Homo sapiens, UniProt Q8IYL9) (assay: Human GPR65 cAMP HTRF antagonist assay). Conditions: not given.
Assay type: cell-based
Excerpt: In one preferred embodiment, the compound prevents the increase in cytoplasmic cAMP levels expected following GPR65 activation at acidic pH. This prevention of cAMP accumulation in turn prevents downstream signalling through ICER, as described above. The “Human GPR65 cyclic adenosine monophosphate (cAMP) Homogeneous Time Resolved Fluorescence (HTRF) antagonist assay”, or simply “cAMP assay”, as described in the accompanying examples, can be used to measure the potency of GPR65 modulators, which is expressed as the concentration of compound required to reduce the increase in cAMP concentration upon GPR65 activation by 50% (i.e. an IC50).
Human GPR65 Cyclic Adenosine Monophosphate (cAMP) Homogeneous Time Resolved Fluorescence (HTRF) Antagonist Assay Procedure
IC50 data was obtained by the following procedure:
1321N1 human astrocytoma cells stably expressing human recombinant GPR65 (1321N1-hrGPR65 cells, EuroscreenFast) were cultured according to the vendor's instructions.
Compounds were tested for their ability to antagonise GPR65, through measuring the concentration of cytoplasmic cAMP following treatment of the cells at a pH of 7.2 to activate GPR65 signalling and addition of the compound to be tested. The extent to which the expected rise in cAMP concentration upon GPR65 activation was suppressed by the added compound is indicative of its potency. The assay was carried out according to EuroscreenFast assay Methodology as follows.
On the day of the assay, test compounds were added to 384-well, low volume, white microtiter plates by acoustic dispensing. KRH buffer (5 mM KCl, 1.25 mM MgSO4, 124 mM NaCl, 25 mM HEPES, 13.3 mM Glucose, 1.25 mM KH2PO4 and 1.45 mM CaCl2) was adjusted to pH 6.5, pH 7.6 and pH 8.4 by adding NaOH. 1321N1-hGPR65 cells were rapidly thawed and diluted in KRH, pH 7.6 prior to centrifugation at 300×g for 5 min and resuspension in assay buffer (KRH, pH 7.6, supplemented with 1 mM 3-isobutyl-1-methylxanthine (IBMX) and 200 μM ethylenediaminetetraacetic acid (EDTA)). Cells were added to assay plates at a density of 2,000 cells per well in a volume of 5 μl. Assay plates were briefly centrifuged at 100×g and then incubated at room temperature for 30 min. Cells were stimulated by the addition of 5 μL KRH, pH 6.5, to achieve an assay pH of 7.2, while control wells received 5 μl KRH, pH 8.4 to achieve an assay pH of 7.9. Assay plates were briefly centrifuged at 100×g and then incubated at room temperature for 30 min.
Accumulation of cAMP was detected by cAMP HTRF kit (Cisbio). d2-labeled cAMP and cryptate-labeled anti-cAMP antibody in Lysis and Detection Buffer (Cisbio) were added to assay plates, and the plates were incubated at room temperature for 1 h. HTRF measurements were performed using a Pherastar FSX instrument. Acceptor and donor emission signals were measured at 665 nm and 620 nm, respectively, and HTRF ratios were calculated as signal665 nm/signal620 nm×10^4. Data were normalised to high and low control values and fitted with 4-parameter logistic regression to determine hGPR65 IC50 values for the test compounds, which are shown in Table 1.

Chain of human recombinant GPR65 (Q8IYL9 whole entry): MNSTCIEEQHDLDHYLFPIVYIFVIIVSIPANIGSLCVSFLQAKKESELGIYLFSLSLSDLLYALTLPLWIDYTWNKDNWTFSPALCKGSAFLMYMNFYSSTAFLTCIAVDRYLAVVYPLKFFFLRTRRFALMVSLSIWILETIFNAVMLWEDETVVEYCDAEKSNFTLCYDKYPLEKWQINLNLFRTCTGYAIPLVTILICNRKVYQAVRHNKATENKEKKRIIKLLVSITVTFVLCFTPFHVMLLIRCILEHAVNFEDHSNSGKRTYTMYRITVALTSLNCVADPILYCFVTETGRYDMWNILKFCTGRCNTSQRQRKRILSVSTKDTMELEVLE

Row | Compound | IC50
1 | O=C(Nc1cc(Cl)c(-c2ccc(OCC(F)(F)F)nc2)cc1F)N1C2CCC1C(F)(F)c1c2ccnc1F (racemic) [Compound 290, (±)-N-(5-Chloro-2-fluoro-4-(6-(2,2,2-trifluoroethoxy)pyridin-3-yl)phenyl)-1,9,9-trifluoro-6,7,8,9-tetrahydro-5H-5,8-epiminocyclohepta[c]pyridine-10-carboxamide] | < 500 nM
2 | O=C(Nc1cc(Cl)c(-c2ccc3nonc3c2)cc1F)N1[C@H]2CC[C@@H]1c1ccnc(F)c1C2 [Compound 162, (5R,8S)-N-(4-(Benzo[c][1,2,5]oxadiazol-5-yl)-5-chloro-2-fluorophenyl)-1-fluoro-6,7,8,9-tetrahydro-5H-5,8-epiminocyclohepta[c]pyridine-10-carboxamide] | < 500 nM
3 | O=C(Nc1cc(Cl)c(-c2ccc(F)nc2)cc1F)N1[C@H]2CC[C@@H]1c1n[nH]c(=O)cc1C2 [Compound 109, (6S,9R)-N-(5-Chloro-2-fluoro-4-(6-fluoropyridin-3-yl)phenyl)-3-oxo-3,5,6,7,8,9-hexahydro-2H-6,9-epiminocyclohepta[c]pyridazine-10-carboxamide] | < 500 nM
4 | CC(C)COc1ccc(-c2cc(F)c(NC(=O)N3[C@H]4CC[C@@H]3c3c[nH]c(=O)cc3C4)cc2Cl)cn1 [Compound 335, (6S,9R)-N-(5-Chloro-2-fluoro-4-(6-isobutoxypyridin-3-yl)phenyl)-3-oxo-3,5,6,7,8,9-hexahydro-2H-6,9-epiminocyclohepta[c]pyridine-10-carboxamide] | < 500 nM
5 | CO[C@H]1C[C@@H](Oc2ccc(NC(=O)N3[C@H]4CC[C@@H]3c3ccnc(F)c3C4)cc2Cl)C1 [Compound 72, (5R,8S)-N-(3-Chloro-4-((1s,3S)-3-methoxycyclobutoxy)phenyl)-1-fluoro-6,7,8,9-tetrahydro-5H-5,8-epiminocyclohepta[c]pyridine-10-carboxamide] | 500 to 5000 nM
6 | O=C(Nc1cc(Cl)c(OC2CCC2)cc1F)N1C2CCC1c1n[nH]c(=O)cc1C2 (racemic) [Compound 51, (±)-N-(5-Chloro-4-cyclobutoxy-2-fluorophenyl)-3-oxo-3,5,6,7,8,9-hexahydro-2H-6,9-epiminocyclohepta[c]pyridazine-10-carboxamide] | < 500 nM
7 | O=C(Nc1cc(Cl)c(-c2cncc(CF)c2)cc1F)N1[C@H]2CC[C@@H]1c1n[nH]c(=O)cc1C2 [Compound 311, (6S,9R)—N-(5-Chloro-2-fluoro-4-(5-(fluoromethyl)pyridin-3-yl)phenyl)-3-oxo-3,5,6,7,8,9-hexahydro-2H-6,9-epiminocyclohepta[c]pyridazine-10-carboxamide] | < 500 nM
8 | COc1cnccc1-c1cc(F)c(NC(=O)N2[C@H]3CC[C@@H]2c2c[nH]c(=O)cc2C3)cc1Cl [Compound 298, (6S,9R)-N-(5-Chloro-2-fluoro-4-(3-methoxypyridin-4-yl)phenyl)-3-oxo-3,5,6,7,8,9-hexahydro-2H-6,9-epiminocyclohepta[c]pyridine-10-carboxamide] | 500 to 5000 nM
9 | O=C(Nc1cc(Cl)c(C(F)(F)F)cc1F)N1[C@H]2CC[C@@H]1C(F)(F)c1c2ccnc1F [Compound 228, (5S,8R)-N-(5-Chloro-2-fluoro-4-(trifluoromethyl)phenyl)-1,9,9-trifluoro-6,7,8,9-tetrahydro-5H-5,8-epiminocyclohepta[c]pyridine-10-carboxamide] | 500 to 5000 nM
10 | O=C(Nc1cc(Br)c(C(F)(F)F)cc1F)N1[C@H]2CC[C@@H]1c1n[nH]c(=O)cc1C2 [Compound 35, (6S,9R)-N-(5-Bromo-2-fluoro-4-(trifluoromethyl)phenyl)-3-oxo-3,5,6,7,8,9-hexahydro-2H-6,9-epiminocyclohepta[c]pyridazine-10-carboxamide] | < 500 nM
11 | O=C(Nc1cc(Cl)c(C(F)(F)F)cc1F)N1C2CCC1c1n[nH]c(=O)cc1C2 (racemic) [Compound 1, (±)—N-(5-chloro-2-fluoro-4-(trifluoromethyl)phenyl)-3-oxo-3,5,6,7,8,9-hexahydro-2H-6,9-epiminocyclohepta[c]pyridazine-10-carboxamide] | < 500 nM
12 | CC(C)Oc1ccc(-c2cc(F)c(NC(=O)N3[C@H]4CC[C@@H]3c3n[nH]c(=O)cc3C4)cc2Cl)cn1 [Compound 209, (6S,9R)-N-(5-Chloro-2-fluoro-4-(6-isopropoxypyridin-3-yl)phenyl)-3-oxo-3,5,6,7,8,9-hexahydro-2H-6,9-epiminocyclohepta[c]pyridazine-10-carboxamide] | < 500 nM
13 | CO[C@H]1CC[C@H](Oc2ccc(-c3cc(F)c(NC(=O)N4[C@H]5CC[C@@H]4c4n[nH]c(=O)cc4C5)cc3Cl)cn2)CC1 [Compound 337, (6S,9R)-N-(5-chloro-2-fluoro-4-(6-(((1r,4r)-4-methoxycyclohexyl)oxy)pyridin-3-yl)phenyl)-3-oxo-3,5,6,7,8,9-hexahydro-2H-6,9-epiminocyclohepta[c]pyridazine-10-carboxamide] | < 500 nM
14 | O=C(Nc1ccc(Br)c(C(F)(F)F)c1)N1[C@H]2CC[C@@H]1c1n[nH]c(=O)cc1C2 [Compound 47, (6S,9R)-N-(4-Bromo-3-(trifluoromethyl)phenyl)-3-oxo-3,5,6,7,8,9-hexahydro-2H-6,9-epiminocyclohepta[c]pyridazine-10-carboxamide] | < 500 nM

Same assay, conditions: 1321N1-hrGPR65 cells, cAMP HTRF, assay pH 7.2; read-out: hGPR65 IC50 (Activity of selected compounds according to the invention)

Row | Compound | IC50
15 | O=C(Nc1c(F)cc(Cl)c(Cl)c1F)N1[C@H]2CC[C@@H]1c1n[nH]c(=O)cc1C2 [Compound 308, (6S,9R)-N-(3,4-Dichloro-2,6-difluorophenyl)-3-oxo-3,5,6,7,8,9-hexahydro-2H-6,9-epiminocyclohepta[c]pyridazine-10-carboxamide] | 500 to 5000 nM
16 | CC1(c2ccc(NC(=O)N3[C@H]4CC[C@@H]3c3ccnc(F)c3C4)cc2)COC1 [Compound 61, (5R,8S)-1-Fluoro-N-(4-(3-methyloxetan-3-yl)phenyl)-6,7,8,9-tetrahydro-5H-5,8-epiminocyclohepta[c]pyridine-10-carboxamide] | > 5000 nM
17 | COCCOc1cnc(F)c2c1[C@H]1CC[C@@H](C2)N1C(=O)Nc1cc(Cl)c(Cl)cc1F [Compound 283, (5R,8S)—N-(4,5-Dichloro-2-fluorophenyl)-1-fluoro-4-(2-methoxyethoxy)-6,7,8,9-tetrahydro-5H-5,8-epiminocyclohepta[c]pyridine-10-carboxamide] | 500 to 5000 nM
18 | CNCCCOc1cnc(F)c2c1[C@H]1CC[C@@H](C2)N1C(=O)Nc1cc(Cl)c(C(F)(F)F)cc1F [Compound 161, (5R,8S)—N-(5-Chloro-2-fluoro-4-(trifluoromethyl)phenyl)-1-fluoro-4-(3-(methylamino)propoxy)-6,7,8,9-tetrahydro-5H-5,8-epiminocyclohepta[c]pyridine-10-carboxamide] | 500 to 5000 nM
19 | O=C(Nc1cc(Cl)c(Cl)cc1F)N1[C@H]2CC[C@@H]1c1c(F)ncc(Cl)c1C2 [Compound 99, (6S,9R)-4-Chloro-N-(4,5-dichloro-2-fluorophenyl)-1-fluoro-6,7,8,9-tetrahydro-5H-6,9-epiminocyclohepta[c]pyridine-10-carboxamide] | 500 to 5000 nM
20 | CC(C)Oc1ccc(NC(=O)N2C3CCC2c2n[nH]c(=O)cc2C3)cc1Cl (racemic) [Compound 13, (±)-N-(3-Chloro-4-isopropoxyphenyl)-3-oxo-3,5,6,7,8,9-hexahydro-2H-6,9-epiminocyclohepta[c]pyridazine-10-carboxamide] | 500 to 5000 nM
21 | N#Cc1cnc(F)c2c1[C@H]1CC[C@@H](C2)N1C(=O)Nc1cc(Cl)c(Cl)cc1F [Compound 160, (5R,8S)-4-Cyano-N-(4,5-dichloro-2-fluorophenyl)-1-fluoro-6,7,8,9-tetrahydro-5H-5,8-epiminocyclohepta[c]pyridine-10-carboxamide] | 500 to 5000 nM
22 | O=C(Nc1cc(Cl)c(Cl)cc1F)N1[C@@H]2CC[C@H]1c1ncc(F)cc1C2 [Compound 95, (6R,9S)-N-(4,5-Dichloro-2-fluorophenyl)-3-fluoro-6,7,8,9-tetrahydro-5H-6,9-epiminocyclohepta[b]pyridine-10-carboxamide] | > 5000 nM
